Source: patent US20250230154A1, “COMPOUND HAVING SHP2 PROTEIN DEGRADING ACTIVITY, AND MEDICAL USES THEREOF” (UBIX THERAPEUTICS, INC., priority 2021, published 2025)

Target: T1, SHP2 protein (Homo sapiens, UniProt Q06124)
T1 sequence (Q06124 1-593): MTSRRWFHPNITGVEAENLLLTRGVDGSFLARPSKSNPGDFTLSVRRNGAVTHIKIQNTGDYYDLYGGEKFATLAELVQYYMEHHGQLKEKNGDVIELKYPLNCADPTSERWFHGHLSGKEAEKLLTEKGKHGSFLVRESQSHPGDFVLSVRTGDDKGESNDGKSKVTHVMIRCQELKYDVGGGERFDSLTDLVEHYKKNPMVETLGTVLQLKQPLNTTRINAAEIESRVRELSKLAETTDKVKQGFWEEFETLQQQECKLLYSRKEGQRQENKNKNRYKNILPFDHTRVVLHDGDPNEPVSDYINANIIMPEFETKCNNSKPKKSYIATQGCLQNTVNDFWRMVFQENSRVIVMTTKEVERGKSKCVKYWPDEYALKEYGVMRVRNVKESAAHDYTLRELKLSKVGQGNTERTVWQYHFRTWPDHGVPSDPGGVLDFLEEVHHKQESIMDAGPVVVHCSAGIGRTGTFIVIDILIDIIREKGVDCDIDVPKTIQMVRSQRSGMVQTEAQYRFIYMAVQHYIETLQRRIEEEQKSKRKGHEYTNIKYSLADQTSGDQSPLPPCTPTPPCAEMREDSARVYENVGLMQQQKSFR
Assay: Measurement of SHP2 protein degradation in MV-4-11 cells (western blotting)
Assay type: cell-based
Set-up: endogenous in cells; host or cells: MV-4-11
Details: MV-4-11 cells, 24 hours
Summary of the method: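 SHP2 protein levels were assessed by western blotting in MV-4-11 cells after a 24 hour compound treatment. Lysates were sonicated, centrifuged, normalized by BCA assay at 562 nm, run on Bis-tris 4-12% gels, transferred to NC membrane, probed with anti-SHPTP2 (70 kDa) and anti-GAPDH (37 kDa) antibodies, and detected on LI-COR Odyssey.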

| SMILES | SHP2 degradation (%) 10 nM | SHP2 degradation (%) 100 nM | SHP2 degradation (%) 1000 nM |
| --- | --- | --- | --- |
| Cc1ncsc1-c1ccc(CNC(=O)[C@@H]2C[C@@H](O)CN2C(=O)[C@@H](NC(=O)C2CC2)C(C)(C)C)c(OCCCN2CCN(CC(=O)Nc3cccc(Sc4cnc(N5CCC(C)(CN)CC5)cn4)c3Cl)C(=O)C2)c1 [Example 80, (2S,4R)—N-(2-(3-(4-(2-((3-((5-(4-(aminomethyl)-4-methylpiperidin-1-yl)pyrazin-2-yl)thio)-2-chlorophenyl)amino)-2-oxoethyl)-3-oxopiperazin-1-yl)propoxy)-4-(4-methylthiazol-5-yl)benzyl)-1-((S)-2-(cyclopropanecarboxamido)-3,3-dimethylbutanoyl)-4-hydroxypyrrolidine-2-carboxamide] | 83.1% | 98.2% |  |
| Cc1ncsc1-c1ccc(CNC(=O)[C@@H]2C[C@@H](O)CN2C(=O)[C@@H](NC(=O)C2(F)CC2)C(C)(C)C)c(OCCCC2CCN(CC(=O)Nc3cccc(Sc4cnc(N5CCC(C)(CN)CC5)cn4)c3Cl)CC2)c1 [Example 71, (2S,4R)—N-(2-(3-(1-(2-((3-((5-(4-(aminomethyl)-4-methylpiperidin-1-yl)pyrazin-2-yl)thio)-2-chlorophenyl)amino)-2-oxoethyl)piperidin-4-yl)propoxy)-4-(4-methylthiazol-5-yl)benzyl)-1-((S)-2-(1-fluorocyclopropane-1-carboxamido)-3,3-dimethylbutanoyl)-4-hydroxypyrrolidine-2-carboxamide] | −1.0% | 29.0% | 87.5% |
| Cc1ncsc1-c1ccc(CNC(=O)[C@@H]2C[C@@H](O)CN2C(=O)[C@@H](NC(=O)C2(F)CC2)C(C)(C)C)c(OCCN2CCN(C(=O)CC(=O)Nc3cccc(Sc4cnc(N5CCC(C)(CN)CC5)cn4)c3Cl)CC2)c1 [Example 52, (2S,4R)—N-(2-(2-(4-(3-((3-((5-(4-(aminomethyl)-4-methylpiperidin-1-yl)pyrazin-2-yl)thio)-2-chlorophenyl)amino)-3-oxopropanoyl)piperazin-1-yl)ethoxy)-4-(4-methylthiazol-5-yl)benzyl)-1-((S)-2-(1-fluorocyclopropane-1-carboxamido)-3,3-dimethylbutanoyl)-4-hydroxypyrrolidine-2-carboxamide] | 72% | 96% | 94.5% |
| Cc1ncsc1-c1ccc(CNC(=O)[C@@H]2C[C@@H](O)CN2C(=O)[C@@H](NC(=O)C2(F)CC2)C(C)(C)C)c(OCCCN2CCC(CC(=O)Nc3cccc(Sc4ncc(N5CCC(C)(CN)CC5)nc4N)c3Cl)CC2)c1 [Example 10, (2S,4R)—N-(2-(3-(4-(2-((3-((3-amino-5-(4-(aminomethyl)-4-methylpiperidin-1-yl)pyrazin-2-yl)thio)-2-chlorophenyl)amino)-2-oxoethyl)piperidin-1-yl)propoxy)-4-(4-methylthiazol-5-yl)benzyl)-1-((S)-2-(1-fluorocyclopropane-1-carboxamido)-3,3-dimethylbutanoyl)-4-hydroxypyrrolidine-2-carboxamide] | 33.7% | 90.9% | 95.0% |
| Cc1ncsc1-c1ccc(CNC(=O)[C@@H]2C[C@@H](O)CN2C(=O)[C@@H](NC(=O)C2(F)CC2)C(C)(C)C)c(OCCN2CCN(c3ncc(C(=O)Nc4cccc(Sc5cnc(N6CCC(C)(CN)CC6)cn5)c4Cl)cn3)CC2)c1 [Example 84, N-(3-((5-(4-(aminomethyl)-4-methylpiperidin-1-yl)pyrazin-2-yl)thio)-2-chlorophenyl)-2-(4-(2-(2-(((2S,4R)-1-((S)-2-(1-fluorocyclopropane-1-carboxamido)-3,3-dimethylbutanoyl)-4-hydroxypyrrolidine-2-carboxamido)methyl)-5-(4-methylthiazol-5-yl)phenoxy)ethyl)piperazin-1-yl)pyrimidine-5-carboxamide] | 48.7% | 97.1% |  |
| Cc1ncsc1-c1ccc(CNC(=O)[C@@H]2C[C@@H](O)CN2C(=O)[C@@H](NC(=O)C2(F)CC2)C(C)(C)C)c(OCCN2CCN(C(=O)CC(=O)Nc3cccc(Sc4ncc(N5CCC(C)(N)CC5)nc4N)c3Cl)CC2)c1 [Example 54, (2S,4R)—N-(2-(2-(4-(3-((3-((3-amino-5-(4-amino-4-methylpiperidin-1-yl)pyrazin-2-yl)thio)-2-chlorophenyl)amino)-3-oxopropanoyl)piperazin-1-yl)ethoxy)-4-(4-methylthiazol-5-yl)benzyl)-1-((S)-2-(1-fluorocyclopropane-1-carboxamido)-3,3-dimethylbutanoyl)-4-hydroxypyrrolidine-2-carboxamide] | 85.8% | 98.3% |  |
| Cc1ncsc1-c1ccc(CNC(=O)[C@@H]2C[C@@H](O)CN2C(=O)[C@@H](NC(=O)C2(F)CC2)C(C)(C)C)c(OCCCCN2CCN(CC(=O)Nc3cccc(Sc4cnc(N5CCC(C)(CN)CC5)cn4)c3Cl)C(=O)C2)c1 [Example 78, (2S,4R)—N-(2-(4-(4-(2-((3-((5-(4-(aminomethyl)-4-methylpiperidin-1-yl)pyrazin-2-yl)thio)-2-chlorophenyl)amino)-2-oxoethyl)-3-oxopiperazin-1-yl)butoxy)-4-(4-methylthiazol-5-yl)benzyl)-1-((S)-2-(1-fluorocyclopropane-1-carboxamido)-3,3-dimethylbutanoyl)-4-hydroxypyrrolidine-2-carboxamide] | 86.6% | 99.5% |  |
| CC(=O)N[C@H](C(=O)N1C[C@H](O)C[C@H]1C(=O)NCc1ccc(-c2scnc2C)cc1OCC1CCN(C(=O)CC(=O)Nc2cccc(Sc3cnc(N4CCC(C)(CN)CC4)cn3)c2Cl)CC1)C(C)(C)C [Example 33, (2S,4R)-1-((S)-2-acetamido-3,3-dimethylbutanoyl)-N-(2-((1-(3-((3-((5-(4-(aminomethyl)-4-methylpiperidin-1-yl)pyrazin-2-yl)thio)-2-chlorophenyl)amino)-3-oxopropanoyl)piperidin-4-yl)methoxy)-4-(4-methylthiazol-5-yl)benzyl)-4-hydroxypyrrolidine-2-carboxamide] | 90% | 96.5% |  |
| Cc1ncsc1-c1ccc(CNC(=O)[C@@H]2C[C@@H](O)CN2C(=O)[C@@H](NC(=O)C2(F)CC2)C(C)(C)C)c(OCCNC(=O)c2cnc(N3CCC(CCCC(=O)Nc4cccc(Sc5cnc(N6CCC(C)(CN)CC6)cn5)c4Cl)CC3)nc2)c1 [Example 89, 2-(4-(4-((3-((5-(4-(aminomethyl)-4-methylpiperidin-1-yl)pyrazin-2-yl)thio)-2-chlorophenyl)amino)-4-oxobutyl)piperidin-1-yl)-N-(2-(2-(((2S,4R)-1-((S)-2-(1-fluorocyclopropane-1-carboxamido)-3,3-dimethylbutanoyl)-4-hydroxypyrrolidine-2-carboxamido)methyl)-5-(4-methylthiazol-5-yl)phenoxy)ethyl)pyrimidine-5-carboxamide] | 4% | 95% | 97% |
| Cc1ncsc1-c1ccc(CNC(=O)[C@@H]2C[C@@H](O)CN2C(=O)[C@@H](NC(=O)C2(F)CC2)C(C)(C)C)c(OCCN2CCN(c3cnc(C(=O)Nc4cccc(Sc5cnc(N6CCC(C)(CN)CC6)cn5)c4Cl)nc3)CC2)c1 [Example 83, N-(3-((5-(4-(aminomethyl)-4-methylpiperidin-1-yl)pyrazin-2-yl)thio)-2-chlorophenyl)-5-(4-(2-(2-(((2S,4R)-1-((S)-2-(1-fluorocyclopropane-1-carboxamido)-3,3-dimethylbutanoyl)-4-hydroxypyrrolidine-2-carboxamido)methyl)-5-(4-methylthiazol-5-yl)phenoxy)ethyl)piperazin-1-yl)pyrimidine-2-carboxamide] | 79.9% | 97.5% |  |
| Cc1ncsc1-c1ccc(CNC(=O)[C@@H]2C[C@@H](O)CN2C(=O)[C@@H](NC(=O)C2(F)CC2)C(C)(C)C)c(OCCCC2CCN(C(=O)C(=O)Nc3cccc(Sc4cnc(N5CCC(C)(CN)CC5)cn4)c3Cl)CC2)c1 [Example 28, (2S,4R)—N-(2-(3-(1-(2-((3-((5-(4-(aminomethyl)-4-methylpiperidin-1-yl)pyrazin-2-yl)thio)-2-chlorophenyl)amino)-2-oxoacetyl)piperidin-4-yl)propoxy)-4-(4-methylthiazol-5-yl)benzyl)-1-((S)-2-(1-fluorocyclopropane-1-carboxamido)-3,3-dimethylbutanoyl)-4-hydroxypyrrolidine-2-carboxamide] | 19% | 76.5% | 94% |
